Experiment [1] addresses T1, KpPrAT (Klebsiella pneumoniae protein adenylyltransferase) (Klebsiella variicola, UniProt B5XQE2). Put plainly: fluorescence emission blue shift and intensity increase. It is filed as binding. Set-up: gene ydiU; synthetic gene in pET-11a (NdeI/BamHI), N-terminal His6 tag kept (no cleavage described), E. coli T7 cells, Ni-IMAC, about 54 kDa. Particulars: 10 µM mant-ATP, 2 µM protein, 20 mM sodium phosphate pH 7.4, 20 °C, with or without 5 mM MgCl2; labelled compound.

For experiment [2], the target named is T1, KpPrAT (Klebsiella pneumoniae protein adenylyltransferase). Put plainly: biochemical. Set-up: gene ydiU. From the text: isothermal titration calorimetry on KpPrAT (Klebsiella pneumoniae protein adenylyltransferase)

T1 sequence (B5XQE2 whole entry): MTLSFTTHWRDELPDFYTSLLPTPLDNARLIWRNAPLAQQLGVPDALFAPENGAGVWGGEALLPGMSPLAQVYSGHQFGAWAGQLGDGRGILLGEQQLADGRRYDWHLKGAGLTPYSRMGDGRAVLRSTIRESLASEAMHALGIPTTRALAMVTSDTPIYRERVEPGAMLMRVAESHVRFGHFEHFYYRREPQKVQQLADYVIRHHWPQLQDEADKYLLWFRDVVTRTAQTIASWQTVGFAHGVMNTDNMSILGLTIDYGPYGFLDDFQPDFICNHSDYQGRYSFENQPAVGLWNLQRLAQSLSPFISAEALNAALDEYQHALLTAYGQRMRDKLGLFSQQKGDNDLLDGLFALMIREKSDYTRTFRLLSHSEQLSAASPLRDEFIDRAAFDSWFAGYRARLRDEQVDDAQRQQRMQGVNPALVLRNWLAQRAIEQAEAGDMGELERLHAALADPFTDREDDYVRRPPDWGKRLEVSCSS

With `CNc1ccccc1C(=O)O[C@H]1[C@@H](O)[C@H](n2cnc3c(N)ncnc32)O[C@@H]1COP(=O)(O)OP(=O)(O)OP(=O)(O)O` [mant-ATP, 2ʹ/3’-O-(N-Methylanthraniloyl) adenosine 5ʹ-triphosphate], the “fluorescence emission blue shift and intensity increase” value in experiment [1] was “An increase in fluorescence intensity and blue shift occurs when KpPrAT binds to mant-ATP”.
The Kd is a measure of binding affinity in units of concentration. The low end stands for higher affinity, the high end for lower affinity. For the molecule `Nc1ncnc2c1ncn2[C@@H]1O[C@H](COP(=O)(O)OP(=O)(O)OP(=O)(O)O)[C@@H](O)[C@H]1O` [ATP], the Kd in experiment [2] is 2930 nM.

Values taken from publication PMC11345332, “Expression, Purification and Biophysical Characterisation of Klebsiella Pneumoniae Protein Adenylyltransferase: A Systematic Integration of Empirical and Computational Modelling Approaches” (The Protein Journal, 2024).
